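Grown in 96-well plates, cells were treated for 48 hours with each compound at five concentrations. Insufficient inhibition: endpoint recorded as highest concentration tested. GI50: concentration for 50% inhibition of growth.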 The source made the active and inactive calls. Rule as the data show it: active = GI50 up to about 1.1 µM and inactive = higher.
Legend:
Test in all cases: NCI-60 cell line screen, 48 h
[1] = test system: A549
[2] = test system: SK-MEL-28
[3] = test system: SF-268
[4] = test system: LOX IMVI
[5] = test system: IGROV-1
[6] = test system: RXF 393
[7] = test system: DMS-114
[8] = test system: SW-620
[9] = test system: NCI-H522
[10] = test system: SN12C
[11] = test system: MDA-MB-435
[12] = test system: 786-0
[13] = test system: SF-539
[14] = test system: U-251
[15] = test system: SK-OV-3
[16] = test system: MDA-MB-231
[17] = test system: RPMI-8226
[18] = test system: HOP-62
[19] = test system: UO-31
[20] = test system: BT-549

| Structure (SMILES) | GI50 [1] | GI50 [2] | GI50 [3] | GI50 [4] | GI50 [5] | GI50 [6] | GI50 [7] | GI50 [8] | GI50 [9] | GI50 [10] | GI50 [11] | GI50 [12] | GI50 [13] | GI50 [14] | GI50 [15] | GI50 [16] | GI50 [17] | GI50 [18] | GI50 [19] | GI50 [20] |
| --- | --- | --- | --- | --- | --- | --- | --- | --- | --- | --- | --- | --- | --- | --- | --- | --- | --- | --- | --- | --- |
| CCCCCCC(=O)OC[n+]1ccc2c(C)c3[nH]c4ccc(OC)cc4c3c(C)c2c1 | 0.238 µM (active) | 1.29 µM (inactive) | 0.154 µM (active) | 0.217 µM (active) | 0.268 µM (active) | 0.247 µM (active) | 0.522 µM (active) | 0.0628 µM (active) | 0.303 µM (active) | 0.0625 µM (active) | 0.454 µM (active) | 0.0708 µM (active) | 0.299 µM (active) | 0.282 µM (active) | 0.585 µM (active) | 0.269 µM (active) | 0.0548 µM (active) | 0.105 µM (active) | 0.83 µM (active) | – |
| Cc1c2cc[n+]([O-])cc2c(C)c2c1[nH]c1ccccc12 | 4.28 µM (inactive) | 37.8 µM (inactive) | 4.9 µM (inactive) | 1.67 µM (inactive) | 6.89 µM (inactive) | 6.73 µM (inactive) | 11.2 µM (inactive) | 1.87 µM (inactive) | 5.97 µM (inactive) | 4.93 µM (inactive) | 6.61 µM (inactive) | 2.74 µM (inactive) | 2.99 µM (inactive) | 3.76 µM (inactive) | 10.8 µM (inactive) | 4.28 µM (inactive) | 6.19 µM (inactive) | 5.74 µM (inactive) | 5.47 µM (inactive) | 9.64 µM (inactive) |
| OCC1OC(n2cnc3c2NC=NC[C@H]3O)CC1O (stereo partly drawn) | – | 493 µM (inactive) | 472 µM (inactive) | 463 µM (inactive) | 450 µM (inactive) | 484 µM (inactive) | 426 µM (inactive) | – | 444 µM (inactive) | 483 µM (inactive) | > 500 µM (inactive) | 455 µM (inactive) | – | 480 µM (inactive) | 467 µM (inactive) | > 500 µM (inactive) | 478 µM (inactive) | 417 µM (inactive) | 460 µM (inactive) | > 500 µM (inactive) |
| O=c1c2cccc3cccc(c4n1CCN=4)c32 | > 100 µM (inactive) | > 100 µM (inactive) | > 100 µM (inactive) | 32 µM (inactive) | 82.6 µM (inactive) | 42.4 µM (inactive) | > 100 µM (inactive) | > 100 µM (inactive) | 84.3 µM (inactive) | > 100 µM (inactive) | – | > 100 µM (inactive) | > 100 µM (inactive) | > 100 µM (inactive) | 41 µM (inactive) | – | > 100 µM (inactive) | 93.3 µM (inactive) | 41 µM (inactive) | – |

From ChEMBL document CHEMBL1201862, “PubChem BioAssay data set” (2004)
